Assay results as given in patent publication US10618903B2, “Heteroaryl substituted aminopyridine compounds” (BRISTOL-MYERS SQUIBB COMPANY, priority 2015, dated 2020).
pEC50, pIC50: −log10 of the molar value.

Columns and labels:
IRAK4 = IRAK4 (Homo sapiens (Human), UniProt Q9NWZ3); assay: IRAK4 Inhibition Assay; assay type: biochemical; settings: ATP 500 μM; IRAK4 0.6 nM
Method in brief: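 Mobility-shift readout: phosphorylated and unphosphorylated fluorescent peptide (1.5 μM) resolved by electrophoresis after a 60 min room-temperature reaction stopped with EDTA. Reaction holds 0.6 nM IRAK4, 500 μM ATP and 1.6% DMSO in HEPES pH 7.2/MgCl2/Brij 35/DTT buffer; percent inhibition set against vehicle and no-enzyme controls.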

Caco Permeability Assay = assay type: in vitro ADME; settings: human, Caco-2, Caco-2 cells, 3 μM compound
Method: Thirteen to 27 days prior to assay, Caco-2 cells were seeded onto collagen-coated polycarbonate filter membranes in 24-well transwell plates at a density of 1.45×10^5 cells/cm^2, approximately 4.8×10^4 cells per well. The cells were grown in a culture medium consisting of DMEM supplemented with 10% fetal bovine serum, 10 mM HEPES, 1% nonessential amino acids, 2 mM L-glutamine, 100 U/mL penicillin-G, and 100 μg/mL streptomycin. The culture medium was replaced every 3 days and the cells were maintained at 37° C. in a 95% relative humidity and 5% CO2 atmosphere. The cells were evaluated for tight junction formation just prior to assay. The test compound was solubilized to 10 mM in 100% DMSO and diluted to 3 μM in assay buffer. Permeability studies were initiated by adding 200 μL assay buffer plus/minus compound to the apical transwell compartment and 600 μL assay buffer plus/minus compound to the basolateral compartment of the 24-well transwell low-binding cluster plate. For apical-to-basolateral (A to B) permeability (absorptive direction), buffer containing compound was placed in the apical compartment (donor wells), while buffer alone was placed in the corresponding basolateral compartments (receiver wells). For basolateral-to-apical (B to A) permeability (secretive direction), buffer containing compound was placed in the basolateral compartment (donor wells), while buffer alone was placed in the corresponding apical compartments (receiver wells). Transwells were then incubated for 2 hours at 37° C. in a 95% relative humidity and 5% CO2 atmosphere with gentle agitation. Following incubation, 100 μL was removed from each apical and basolateral compartment and transferred to 96-well low binding plates that had been previously loaded with 100 µL/well of acetonitrile containing 250 nM propranolol, 250 nM diclofenac, and 500 nM tolbutamide as internal standards. The samples were subsequently analyzed by LC-MS/MS to determine concentrations of compound.

[1] = test system: IL-6 levels in human whole blood stimulated with a TLR2 agonist; assay: IRAK4 Whole Blood Assay (lipoteichoic acid/TLR2-stimulated IL-6); assay type: cell-based; settings: lipoteichoic acid 10 μg/mL, IL-6 readout
Method in brief: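 ACD-A-anticoagulated human whole blood was preincubated with compounds for 60 min at 37 °C under 5% CO2. It was then stimulated with 10 μg/mL lipoteichoic acid (final) in RPMI for 5 h. IL-6 in plasma supernatants was measured by flow cytometry bead assay.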

Sequence of IRAK4 (Q9NWZ3 whole entry): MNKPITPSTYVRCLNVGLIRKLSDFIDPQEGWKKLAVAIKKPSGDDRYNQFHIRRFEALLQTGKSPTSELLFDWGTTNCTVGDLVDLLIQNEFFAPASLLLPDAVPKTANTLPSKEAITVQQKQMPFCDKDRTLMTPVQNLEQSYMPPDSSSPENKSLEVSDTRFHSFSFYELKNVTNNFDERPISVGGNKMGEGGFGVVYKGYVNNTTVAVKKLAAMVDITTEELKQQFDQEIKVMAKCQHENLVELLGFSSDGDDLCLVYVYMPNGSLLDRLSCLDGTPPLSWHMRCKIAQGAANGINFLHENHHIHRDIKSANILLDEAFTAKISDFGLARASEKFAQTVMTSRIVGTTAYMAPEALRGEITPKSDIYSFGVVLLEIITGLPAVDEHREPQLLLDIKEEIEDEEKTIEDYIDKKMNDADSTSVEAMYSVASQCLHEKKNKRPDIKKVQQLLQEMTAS

Row | pIC50 (IRAK4) | Papp at 2 h, 3 µM (Caco Permeability Assay) [×10⁻⁶ cm/s] | pEC50 ([1]; Homo sapiens) | pEC50 [1] | SMILES
1 | 8.40 | 6.5 | 6.18 | – | CC(C)OC1CC(Nc2cc(-c3cnn4cc(Cl)cnc34)ncc2C(=O)NC[C@@H](F)C(C)(C)O)CC1(F)F (single isomer, unassigned) [Example 15]
2 | 8.52 | 4.9 | – | 6.21 | CC(C)(O)[C@H](F)CNC(=O)c1cnc(-c2cnn3cc(Cl)cnc23)cc1NC1COCC1(F)F (single isomer, unassigned) [Example 19]
3 | 8.52 | 24.8 | 6.40 | – | CC(C)Nc1cc(-c2cnn3cc(Cl)cnc23)ncc1C(=O)NC[C@@H](F)C(C)(C)O [Example 1, (R)-6-(6-chloropyrazolo[1,5-a]pyrimidin-3-yl)-N-(2-fluoro-3-hydroxy-3-methylbutyl)-4-(isopropylamino)nicotinamide]
4 | 8.52 | 17.5 | 7.00 | – | CC(C)(O)[C@H](F)CNC(=O)c1cnc(-c2cnn3cc(Cl)cnc23)cc1NC1COC1 [Example 5, (R)-6-(6-chloropyrazolo[1,5-a]pyrimidin-3-yl)-N-(2-fluoro-3-hydroxy-3-methylbutyl)-4-(oxetan-3-ylamino)nicotinamide]
5 | 8.70 | 16.2 | 4.95 | – | CC(C)(O)[C@H](F)CNC(=O)c1cnc(-c2cnn3cc(Cl)cnc23)cc1NC1CC1 [Example 22, (R)-6-(6-chloropyrazolo[1,5-a]pyrimidin-3-yl)-4-(cyclopropylamino)-N-(2-fluoro-3-hydroxy-3-methylbutyl)nicotinamide]
6 | 8.40 | 14.2 | 6.42 | – | CC(C)(O)[C@H](F)CNC(=O)c1cnc(-c2cnn3cc(Cl)cnc23)cc1NC1CCOCC1 [Example 30, (R)-6-(6-chloropyrazolo[1,5-a]pyrimidin-3-yl)-N-(2-fluoro-3-hydroxy-3-methylbutyl)-4-((tetrahydro-2H-pyran-4-yl)amino)nicotinamide]
7 | 8.15 | < 1.5 | 6.85 | – | C[C@@H](CO)Nc1cc(-c2cnn3cc(Cl)cnc23)ncc1C(=O)NC[C@@H](F)C(C)(C)O [Example 31, 6-(6-chloropyrazolo[1,5-a]pyrimidin-3-yl)-N—((R)-2-fluoro-3-hydroxy-3-methylbutyl)-4-(((S)-1-hydroxypropan-2-yl)amino)nicotinamide]
8 | 8.40 | 24.1 | 6.15 | – | C[C@@H](CF)Nc1cc(-c2cnn3cc(Cl)cnc23)ncc1C(=O)NC[C@@H](F)C(C)(C)O [Example 32, 6-(6-chloropyrazolo[1,5-a]pyrimidin-3-yl)-N—((R)-2-fluoro-3-hydroxy-3-methylbutyl)-4-(((S)-1-fluoropropan-2-yl)amino)nicotinamide]
9 | 8.22 | 4.8 | 6.15 | – | CC(C)Nc1cc(-c2cnn3cc(Cl)cnc23)ncc1C(=O)NCC(F)C1(O)COC1 (stereo not shown) [Example 37, 6-(6-chloropyrazolo[1,5-a]pyrimidin-3-yl)-N-(2-fluoro-2-(3-hydroxyoxetan-3-yl)ethyl)-4-(isopropylamino)nicotinamide]

The next lines start with the compound.

Row | SMILES | pIC50 (IRAK4) | Papp at 2 h, 3 µM (Caco Permeability Assay) [×10⁻⁶ cm/s] | pEC50 ([1]; Homo sapiens) | pEC50 [1]
10 | CC(C)(O)c1cnc(Nc2cc(-c3cnn4cc(Cl)cnc34)ncc2C(=O)NC[C@@H](F)C(C)(C)O)s1 [Example 2, (R)-6-(6-chloropyrazolo[1,5-a]pyrimidin-3-yl)-N-(2-fluoro-3-hydroxy-3-methylbutyl)-4-((5-(2-hydroxypropan-2-yl)thiazol-2-yl)amino)nicotinamide] | 8.10 | < 1.5 | 6.06 | –
11 | CC(=O)N[C@H]1CC[C@H](NC(=O)c2cnc(-c3cnn4cc(Cl)cnc34)cc2NC(C)C)CC1 [Example 23, N-((1r,4r)-4-acetamidocyclohexyl)-6-(6-chloropyrazolo[1,5-a]pyrimidin-3-yl)-4-(isopropylamino) nicotinamide] | 8.00 | 1.8 | 6.14 | –
12 | CC(C)(O)[C@H](F)CNC(=O)c1cnc(-c2cnn3cc(Cl)cnc23)cc1Nc1ccc(C(N)=O)cc1 [Example 33, (R)-4-((4-carbamoylphenyl)amino)-6-(6-chloropyrazolo[1,5-a]pyrimidin-3-yl)-N-(2-fluoro-3-hydroxy-3-methylbutyl) nicotinamide] | 8.70 | < 1.5 | 6.46 | –
13 | CNC(=O)c1ccc(Nc2cc(-c3cnn4cc(Cl)cnc34)ncc2C(=O)NC[C@@H](F)C(C)(C)O)cc1 [Example 34, (R)-6-(6-chloropyrazolo[1,5-a]pyrimidin-3-yl)-N-(2-fluoro-3-hydroxy-3-methylbutyl)-4-((4-(methylcarbamoyl)phenyl)amino)nicotinamide] | 8.70 | < 1.5 | 6.44 | –
14 | CC(C)(O)[C@H]1CC[C@H](NC(=O)c2cnc(-c3cnn4cc(Cl)cnc34)cc2NC2COC2)CC1 [Example 40, 6-(6-chloropyrazolo[1,5-a]pyrimidin-3-yl)-N-((1r,4r)-4-(2-hydroxypropan-2-yl)cyclohexyl)-4-(oxetan-3-ylamino)nicotinamide] | 8.40 | 22.1 | 5.76 | –
15 | CC(=O)N[C@H]1CC[C@H](NC(=O)c2cnc(-c3cnn4cc(C#N)cnc34)cc2NC(C)C)CC1 [Example 89, N-((1r,4r)-4-acetamidocyclohexyl)-6-(6-cyanopyrazolo[1,5-a]pyrimidin-3-yl)-4-(isopropylamino)nicotinamide] | – | < 1.5 | 5.53 | –
16 | CC(C)(F)CNc1cc(-c2cnn3cc(C#N)cnc23)ncc1C(=O)NC[C@@H](F)C(C)(C)O [Example 91, (R)-6-(6-cyanopyrazolo[1,5-a]pyrimidin-3-yl)-4-((2-fluoro-2-methylpropyl)amino)-N-(2-fluoro-3-hydroxy-3-methylbutyl)nicotinamide] | – | 5 | 5.53 | –
17 | CC(C)(O)[C@H](F)CNC(=O)c1cnc(-c2cnn3cc(C#N)cnc23)cc1NC1CCC1 [Example 96, (R)-6-(6-cyanopyrazolo[1,5-a]pyrimidin-3-yl)-4-(cyclobutylamino)-N-(2-fluoro-3-hydroxy-3-methylbutyl)nicotinamide] | – | 8.3 | 6.57 | –
18 | CC(C)(O)[C@H](F)CNC(=O)c1cnc(-c2cnn3cc(C#N)cnc23)cc1NC1CCC(F)(F)C1O (stereo partly drawn) [Example 107, 6-(6-cyanopyrazolo[1,5-a]pyrimidin-3-yl)-4-((3,3-difluoro-2-hydroxycyclopentyl)amino)-N—((R)-2-fluoro-3-hydroxy-3-methylbutyl)nicotinamide] | – | < 1.5 | 6.37 | –
19 | CC(C)(F)Cn1cc(Nc2cc(-c3cnc4cc(C#N)cnn34)ncc2C(=O)NC[C@@H](F)C(C)(C)F)cn1 [Example 282, (R)-6-(7-cyanoimidazo[1,2-b]pyridazin-3-yl)-N-(2,3-difluoro-3-methylbutyl)-4-((1-(2-fluoro-2-methylpropyl)-1H-pyrazol-4-yl)amino)nicotinamide] | 8.70 | – | 6.15 | –
20 | CC(C)(O)[C@H](F)CNC(=O)c1cnc(-c2cnc3cc(Cl)cnn23)cc1Nc1cnn(CCCF)c1 [Example 283, (R)-6-(7-chloroimidazo[1,2-b]pyridazin-3-yl)-N-(2-fluoro-3-hydroxy-3-methylbutyl)-4-((1-(3-fluoropropyl)-1H-pyrazol-4-yl)amino)nicotinamide] | 8.70 | – | 6.47 | –
21 | CC(C)(O)[C@H](F)CNC(=O)c1cnc(-c2cnc3cc(Cl)cnn23)cc1Nc1cnn(C2CCC2)c1 [Example 285, (R)-6-(7-chloroimidazo[1,2-b]pyridazin-3-yl)-4-((1-cyclobutyl-1H-pyrazol-4-yl)amino)-N-(2-fluoro-3-hydroxy-3-methylbutyl)nicotinamide] | 8.52 | – | 6.43 | –
22 | CC(C)(O)[C@H](F)CNC(=O)c1cnc(-c2cnc3cc(C#N)cnn23)cc1N[C@@H]1CCN(c2ncc(F)cn2)C1 [Example 288, 6-(7-cyanoimidazo[1,2-b]pyridazin-3-yl)-N—((R)-2-fluoro-3-hydroxy-3-methylbutyl)-4-(((R)-1-(5-fluoropyrimidin-2-yl)pyrrolidin-3-yl)amino)nicotinamide] | 8.05 | – | 6.41 | –
